Structures can show the parent of a compound that is named as a salt.
How the values were obtained:
[1] = target: T1, human placental CYP19 (Homo sapiens, UniProt P11511); assay: IC50 of CYP19 (human placental microsomes); assay type: biochemical; conditions: human placental CYP19; testosterone substrate 2.5 μM
T1 construct: The enzyme was obtained from the microsome fraction of fresh human placenta; from tissue; host or cells: human placenta, microsomal fraction
T1 sequence (P11511 1-503): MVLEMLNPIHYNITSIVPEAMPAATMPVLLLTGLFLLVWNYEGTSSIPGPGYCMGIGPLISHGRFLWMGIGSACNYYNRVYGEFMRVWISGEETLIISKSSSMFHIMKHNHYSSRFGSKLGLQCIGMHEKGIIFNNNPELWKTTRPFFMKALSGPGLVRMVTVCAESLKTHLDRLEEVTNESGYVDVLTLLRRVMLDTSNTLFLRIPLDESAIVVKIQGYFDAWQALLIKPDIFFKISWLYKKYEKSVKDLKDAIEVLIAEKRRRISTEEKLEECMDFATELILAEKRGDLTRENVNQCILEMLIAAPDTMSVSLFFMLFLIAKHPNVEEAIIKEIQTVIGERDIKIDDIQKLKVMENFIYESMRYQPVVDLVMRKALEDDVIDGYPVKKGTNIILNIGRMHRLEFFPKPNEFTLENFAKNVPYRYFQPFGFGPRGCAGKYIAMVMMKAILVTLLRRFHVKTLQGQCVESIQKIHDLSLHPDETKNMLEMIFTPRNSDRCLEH
Description: The isolated microsomes were suspended in a minimum volume of phosphate buffer (0.05 M; pH 7.4; […]). In addition, DTT (10 mM) and EDTA (1 mM) were added to protect the enzyme from degradation reactions.
[…] […] The compounds to be tested were dissolved in DMSO and diluted with buffer to the desired concentration. The final DMSO concentration of the control and inhibitor incubations was about 20%. Each vessel was preincubated in a water bath at 30° C. for 5 min. The reaction was started by adding the microsomal protein (0.1 mg). The total volume of each mixture was 200 μl. After 14 min, the reaction was quenched by adding 200 μl of ice cold 1 mM HgCl2 solution. Two hundred microliters of a 2% aqueous suspension of dextran-coated charcoal, DCC) was added for absorbing the steroids, and the vessels were shaken for 20 min. Thereafter, the charcoal was centrifuged off at 1500 g for 5 min. The radioactive water present in the supernatant (^3H2O) was assayed by scintillation measurement using an LKB-Wallac beta counter. The calculation of the IC50 values was effected by a semilogarithmic plot of the percent inhibition against the inhibitor concentration.

[2] = target: T2, human CYP11B1 (Homo sapiens, UniProt P15538); assay: V79 MZh 11B1 cells inhibition test; assay type: cell-based; conditions: hamster fibroblasts which express human CYP11B1; deoxycorticosterone substrate 100 nM; read-out: IC50 V79 11B1 hCYP11B1
T2 construct: expressed in transfected cells; host or cells: V79 MZh11B1 (Chinese hamster lung fibroblasts)
T2 sequence (P15538 25-503): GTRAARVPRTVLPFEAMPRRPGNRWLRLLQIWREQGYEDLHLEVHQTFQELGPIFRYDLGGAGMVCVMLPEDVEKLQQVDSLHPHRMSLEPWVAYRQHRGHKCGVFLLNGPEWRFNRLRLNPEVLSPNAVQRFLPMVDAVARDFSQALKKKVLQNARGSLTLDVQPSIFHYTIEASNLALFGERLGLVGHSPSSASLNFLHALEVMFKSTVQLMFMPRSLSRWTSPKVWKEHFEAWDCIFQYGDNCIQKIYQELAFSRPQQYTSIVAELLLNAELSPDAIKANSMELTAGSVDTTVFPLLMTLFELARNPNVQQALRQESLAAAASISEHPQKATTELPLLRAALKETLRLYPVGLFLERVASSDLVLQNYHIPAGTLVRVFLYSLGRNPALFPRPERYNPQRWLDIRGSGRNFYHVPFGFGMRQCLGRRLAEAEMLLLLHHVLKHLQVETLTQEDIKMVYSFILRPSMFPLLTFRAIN
Description: Both cell lines were cultured in DMEM^+ containing […] and the antibiotics penicillin and streptomycin (10%) for protection from bacterial contamination. The cells were passaged every 2-3 days after treatment with trypsin/EDTA because the doubling rate was 1-2 days depending on the number of cells. […] When there was further need, freshly thawed cells were employed.
Thereafter, the plate was stored at 37° C. and […] in a CO2 incubator. […] Controls without inhibitor were treated in the same way. The enzyme reactions were quenched by extracting the supernatant with 500 μl of EtOAc. The samples were centrifuged (10,000 g, 2 min), the solvent was removed and evaporated.
It was calculated by determining the percent inhibition for at least 3 different inhibitor concentrations, which must all be in the linear range of the sigmoidal IC50 curve (log C/% inhibition).
The calculation was effected by linear regression. The values determined were used only if they formed a straight line with a reliability of […].
The plate was developed twice with the mobile solvent chloroform:methanol:water (300:20:1). Unlabeled 11-deoxycorticosterone and corticosterone were applied as a reference for the CYP11B1 reaction. For the CYP11B2 reaction, 11-deoxycorticosterone, corticosterone, 18-hydroxycorticosterone and aldosterone were used as references. The detection of the unlabeled references was effected at 260 nm. Subsequently, imaging plates (BAS MS2340, for ^14C samples, Raytest, Straubenhardt, Germany) were exposed to the HPTLC plates for 48 h. The imaging plates were scanned with the phosphoimager system Fuji FLA 3000 (Raytest, Straubenhardt, Germany), and the steroids were quantified.

| SMILES | IC50 [1] [µM] | IC50 [2] [µM] |
| --- | --- | --- |
| COc1ccc2c(c1)CCC/C2=C\c1cccnc1 [Compound 13a, 3-[(E)-(6-Methoxy-3,4-dihydronaphthalene-1(2H)-ylidene)methyl]pyridine Hydrochloride] | 1.13 | 0.903 |
| C(=C1/CCc2ccccc21)/c1cccnc1 [Compound 1a, 3-[(E)-2,3-Dihydro-1H-indane-1-ylidenemethyl]pyridine Hydrochloride] | 2.04 | 0.888 |
| COc1ccc2c(c1)CC/C2=C/c1cccnc1 [Compound 11b, 3-[(Z)-(5-Methoxy-2,3-dihydro-1H-indane-1-ylidene)methyl]pyridine Hydrochloride] | 5.57 | 0.79 |

Next, values leading:

| IC50 [1] [µM] | IC50 [2] [µM] | SMILES |
| --- | --- | --- |
| 7.68 | 2.7 | CCOc1ccc2c(c1)CC/C2=C/c1cccnc1 [Compound 19b, 3-[(Z)-(5-Ethoxy-2,3-dihydro-1H-indane-1-ylidene)methyl]pyridine Hydrochloride] |
| 9.74 | 0.955 | COc1cccc2c1/C(=C/c1cccnc1)CC2 [Compound 26a, 3-[(E)-(7-Methoxy-2,3-dihydro-1H-indane-1-ylidene)methyl]pyridine Hydrochloride] |
| 4 | 0.206 | COc1ccc2c(c1)CCC/C2=C/c1cccnc1.Cl [Compound 13b, 3-[(Z)-(6-Methoxy-3,4-dihydronaphthalene-1(2H)-ylidene)methyl]pyridine Hydrochloride] |
| 1.81 | 0.773 | Fc1cccc2c1CC/C2=C\c1cccnc1 [Compound 24a, 3-[(E)-(4-Fluoro-2,3-dihydro-1H-indane-1-ylidene)methyl]pyridine Hydrochloride] |

Reference: patent publication US20090105278A1, “Selective inhibitors of human corticosteroid syntheses” (Universitat Des Saarlandes, priority 2004, published 2009)
